Assay results as given in PubChem BioAssay AID2060905 (Molecular Pharmacology Branch, DTP, NCI, 2025).
pIC50: −log10 of the molar value.

System: 282377-053-R-J1-PDC complex spheroid viability
Assay: Anticancer human tumor 282377-053-R-J1-PDC patient-derived colon adenocarcinoma cell line growth inhibition [RAS]
Conditions: for pIC50: curve of first compound; for viability, T/C: stronger effect = lower value
In short: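 Multi-cell-type spheroids: tumor cells plus HUVEC endothelial cells and mesenchymal stem cells. RAS-pathway inhibitors were combined with targeted agents, each dosed in half-log steps down from clinical Cmax, or from 10 microM when Cmax was unknown.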

[1] = second compound 0.00316 µM, first compound 0.0316 µM
[2] = second compound 0.00316 µM, first compound 0.1 µM
[3] = second compound 0.00316 µM, first compound 0.316 µM
[4] = second compound 0.00316 µM, first compound 1 µM
[5] = second compound 0.00316 µM, first compound 3.16 µM
[6] = second compound 0.00316 µM, first compound 10 µM
[7] = second compound 0.01 µM, first compound 0.0316 µM
[8] = second compound 0.01 µM, first compound 0.1 µM
[9] = second compound 0.01 µM, first compound 0.316 µM
[10] = second compound 0.01 µM, first compound 1 µM
[11] = second compound 0.01 µM, first compound 3.16 µM
[12] = second compound 0.01 µM, first compound 10 µM
[13] = second compound 0.0316 µM, first compound 0.0316 µM
[14] = second compound 0.0316 µM, first compound 0.1 µM
[15] = second compound 0.0316 µM, first compound 0.316 µM
[16] = second compound 0.0316 µM, first compound 1 µM
[17] = second compound 0.0316 µM, first compound 3.16 µM
[18] = second compound 0.0316 µM, first compound 10 µM
[19] = second compound 0.1 µM, first compound 0.0316 µM
[20] = second compound 0.1 µM, first compound 0.1 µM
[21] = second compound 0.1 µM, first compound 0.316 µM
[22] = second compound 0.1 µM, first compound 1 µM
[23] = second compound 0.1 µM, first compound 3.16 µM
[24] = second compound 0.1 µM, first compound 10 µM
[25] = second compound 0.316 µM, first compound 0.0316 µM
[26] = second compound 0.316 µM, first compound 0.1 µM
[27] = second compound 0.316 µM, first compound 0.316 µM
[28] = second compound 0.316 µM, first compound 1 µM
[29] = second compound 0.316 µM, first compound 3.16 µM
[30] = second compound 0.316 µM, first compound 10 µM
[31] = second compound 1 µM, first compound 0.0316 µM
[32] = second compound 1 µM, first compound 0.1 µM
[33] = second compound 1 µM, first compound 0.316 µM
[34] = second compound 1 µM, first compound 1 µM
[35] = second compound 1 µM, first compound 3.16 µM
[36] = second compound 1 µM, first compound 10 µM
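Note: spheroids exposed to agents for seven days before readout.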
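Throughout, for viability, T/C: luminescence viability as percent of DMSO vehicle control wells.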

`CC(Nc1ccc2c(c1)OCCn1cc(N3C(=O)OCC3C(F)F)nc1-2)C(N)=O` (stereo unspecified) + C=CC(=O)N1CCN(c2nc(OCC3CCCN3C)nc3c(F)c(-c4nc(N)cc(C)c4C(F)(F)F)c(Cl)cc23)C(C)C1 showed a pIC50 (second compound 0.00316 µM) of under 5.00, a pIC50 (second compound 0.01 µM) of under 5.00 and a pIC50 (second compound 0.0316 µM) of under 5.00. It also gave a pIC50 (second compound 0.1 µM) of under 5.00, a pIC50 (second compound 0.316 µM) of under 5.00 and a pIC50 (second compound 1 µM) of under 5.00. The viability, T/C [1] was 100%, the viability, T/C [2] was 93.8% and the viability, T/C [3] was 94.3%. The viability, T/C [4] was 82.6%, the viability, T/C [5] was 78.9% and the viability, T/C [6] was 70.1%. The viability, T/C [7] was 105%, the viability, T/C [8] was 89.1% and the viability, T/C [9] was 79.6%. For the same molecule, the viability, T/C [10] was 82.4%, the viability, T/C [11] was 89.9% and the viability, T/C [12] was 81.5%. The viability, T/C [13] was 91.1%, the viability, T/C [14] was 86.9% and the viability, T/C [15] was 87.1%. The viability, T/C [16] was 88.9%, the viability, T/C [17] was 77.6% and the viability, T/C [18] was 86.1%. For the same molecule, the viability, T/C [19] was 101%, the viability, T/C [20] was 94.1% and the viability, T/C [21] was 95.5%. It also gave a viability, T/C [22] of 82.2%, a viability, T/C [23] of 102% and a viability, T/C [24] of 76.7%. It also gave a viability, T/C [25] of 104%, a viability, T/C [26] of 92.8% and a viability, T/C [27] of 100%. For the same molecule, the viability, T/C [28] was 94.3%, the viability, T/C [29] was 78.2% and the viability, T/C [30] was 78.4%. For the same molecule, the viability, T/C [31] was 105%, the viability, T/C [32] was 102% and the viability, T/C [33] was 92%. It also gave a viability, T/C [34] of 93.8%, a viability, T/C [35] of 76% and a viability, T/C [36] of 83.8%.

`C[C@@H](NC(=O)c1ncnc(N)c1Cl)c1ncc(C(=O)Nc2cc(C(F)(F)F)c(Cl)cn2)s1` + C=CC(=O)N1CCN(c2nc(OCC3CCCN3C)nc3c(F)c(-c4nc(N)cc(C)c4C(F)(F)F)c(Cl)cc23)C(C)C1 gave a pIC50 (second compound 0.00316 µM) of under 5.00, a pIC50 (second compound 0.01 µM) of under 5.00 and a pIC50 (second compound 0.0316 µM) of under 5.00. The pIC50 (second compound 0.1 µM) was under 5.00, the pIC50 (second compound 0.316 µM) was under 5.00 and the pIC50 (second compound 1 µM) was under 5.00. For the same molecule, the viability, T/C [1] was 99%, the viability, T/C [2] was 101% and the viability, T/C [3] was 95.4%. The viability, T/C [4] was 88.4%, the viability, T/C [5] was 69.5% and the viability, T/C [6] was 66.1%. It also gave a viability, T/C [7] of 84.1%, a viability, T/C [8] of 105% and a viability, T/C [9] of 98%. For the same molecule, the viability, T/C [10] was 80.7%, the viability, T/C [11] was 82.2% and the viability, T/C [12] was 76.4%. The viability, T/C [13] was 84.9%, the viability, T/C [14] was 78.4% and the viability, T/C [15] was 89.4%. For the same molecule, the viability, T/C [16] was 84.7%, the viability, T/C [17] was 80.9% and the viability, T/C [18] was 57.6%. The viability, T/C [19] was 106%, the viability, T/C [20] was 98.7% and the viability, T/C [21] was 99.9%. It also gave a viability, T/C [22] of 92.3%, a viability, T/C [23] of 66% and a viability, T/C [24] of 66.1%. The viability, T/C [25] was 92.5%, the viability, T/C [26] was 118% and the viability, T/C [27] was 98.1%. For the same molecule, the viability, T/C [28] was 81.6%, the viability, T/C [29] was 78.2% and the viability, T/C [30] was 92.3%. It also gave a viability, T/C [31] of 104%, a viability, T/C [32] of 90.3% and a viability, T/C [33] of 122%. The viability, T/C [34] was 76.5%, the viability, T/C [35] was 85% and the viability, T/C [36] was 82.5%.

Molecule `O=C(c1ccc(F)c(F)c1Nc1ccc(I)cc1F)N1CC(O)([C@@H]2CCCCN2)C1` + C=CC(=O)N1CCN(c2nc(OCC3CCCN3C)nc3c(F)c(-c4nc(N)cc(C)c4C(F)(F)F)c(Cl)cc23)C(C)C1 has a pIC50 (second compound 0.00316 µM) of 7.09, a pIC50 (second compound 0.01 µM) of 6.98 and a pIC50 (second compound 0.0316 µM) of 6.89. The pIC50 (second compound 0.1 µM) was 6.75, the pIC50 (second compound 0.316 µM) was 6.84 and the pIC50 (second compound 1 µM) was 6.85. The viability, T/C (second compound 0.00316 µM, first compound 0.00316 µM) was 90.2%, the viability, T/C (second compound 0.00316 µM, first compound 0.01 µM) was 88.3% and the viability, T/C [1] was 77.2%. It also gave a viability, T/C [2] of 41.4%, a viability, T/C [3] of 32.6% and a viability, T/C [4] of 18.4%. The viability, T/C (second compound 0.01 µM, first compound 0.00316 µM) was 102%, the viability, T/C (second compound 0.01 µM, first compound 0.01 µM) was 94% and the viability, T/C [7] was 68.8%. It also gave a viability, T/C [8] of 52.3%, a viability, T/C [9] of 31.6% and a viability, T/C [10] of 17.7%. The viability, T/C (second compound 0.0316 µM, first compound 0.00316 µM) was 88.5%, the viability, T/C (second compound 0.0316 µM, first compound 0.01 µM) was 87.3% and the viability, T/C [13] was 81.3%. For the same molecule, the viability, T/C [14] was 56.1%, the viability, T/C [15] was 28.9% and the viability, T/C [16] was 20.7%. For the same molecule, the viability, T/C (second compound 0.1 µM, first compound 0.00316 µM) was 95.6%, the viability, T/C (second compound 0.1 µM, first compound 0.01 µM) was 86.2% and the viability, T/C [19] was 95.1%. For the same molecule, the viability, T/C [20] was 66.3%, the viability, T/C [21] was 32.9% and the viability, T/C [22] was 21.1%. For the same molecule, the viability, T/C (second compound 0.316 µM, first compound 0.00316 µM) was 101%, the viability, T/C (second compound 0.316 µM, first compound 0.01 µM) was 95.8% and the viability, T/C [25] was 87.2%. The viability, T/C [26] was 57.8%, the viability, T/C [27] was 32.2% and the viability, T/C [28] was 17.9%. The viability, T/C (second compound 1 µM, first compound 0.00316 µM) was 98.3%, the viability, T/C (second compound 1 µM, first compound 0.01 µM) was 93.7% and the viability, T/C [31] was 98.5%. It also gave a viability, T/C [32] of 55.7%, a viability, T/C [33] of 35.5% and a viability, T/C [34] of 18%.
